Assay results taken from ChEMBL document CHEMBL5608257, “Structure-Based Optimization of a Series of Covalent, Cell Active Bfl-1 Inhibitors” (J Med Chem, 2024).

What was measured:
Bcl-2-related protein A1 [1] = target: T1, Bcl-2-related protein A1 (Homo sapiens, UniProt Q16548); assay: Inhibition of N-terminal His6-tagged recombinant Bfl-1 (1 to 151 residues)(unknown origin) extracted from Escherichia coli BL21-Gold (DE3) using HyLite Fluor 647-labeled Bim peptide as substrate incubated for 120 mins by TR-FRET assay
T1 sequence (Q16548 whole entry): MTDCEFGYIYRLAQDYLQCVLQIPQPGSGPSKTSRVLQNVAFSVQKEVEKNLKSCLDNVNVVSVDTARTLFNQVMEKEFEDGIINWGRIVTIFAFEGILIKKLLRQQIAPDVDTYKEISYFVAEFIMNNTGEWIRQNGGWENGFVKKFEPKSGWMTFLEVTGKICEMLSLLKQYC

Bcl-2-related protein A1 [2] = target: T1, Bcl-2-related protein A1; assay: Inhibition of Bfl-1 in human SU-DHL-1 cells assessed as caspase-3/7 activation measured after 6 hrs by UPLC-MRM MS analysis; type: cell-based
[3] = target: Induced myeloid leukemia cell differentiation protein Mcl-1 (Homo sapiens, UniProt Q07820); assay: Inhibition of Mcl-1 (unknown origin)
Sequence of Induced myeloid leukemia cell differentiation protein Mcl-1 (Q07820 whole entry): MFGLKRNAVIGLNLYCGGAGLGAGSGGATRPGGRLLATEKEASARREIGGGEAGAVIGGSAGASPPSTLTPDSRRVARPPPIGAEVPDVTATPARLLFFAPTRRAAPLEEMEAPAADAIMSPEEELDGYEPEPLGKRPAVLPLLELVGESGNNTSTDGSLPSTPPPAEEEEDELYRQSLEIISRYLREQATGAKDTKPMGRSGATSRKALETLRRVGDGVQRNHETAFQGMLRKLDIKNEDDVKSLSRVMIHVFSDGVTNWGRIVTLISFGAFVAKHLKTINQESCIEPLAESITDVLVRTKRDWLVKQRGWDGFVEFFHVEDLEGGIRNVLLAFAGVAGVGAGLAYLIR

Row | Structure (SMILES) | IC50 (Bcl-2-related protein A1 [1]) [nM] | EC50 (Bcl-2-related protein A1 [2]) [µM] | IC50 [3] [µM]
1 | C=CC(=O)N(Cc1ccc(Cl)cc1)c1ccc(O[C@H]2CC[C@H](N)C2)cc1 | 5100 |  | 
2 | C=CC(=O)N(Cc1ccc(OC)cc1)c1ccc(Cl)cc1 | 19000 |  | 
3 | C=CC(=O)N(Cc1ccc(Cl)cc1)c1ccc(O[C@H]2CC[C@@H](N)C2)cc1 (racemic) | 42000 |  | 
4 | C=CC(=O)N(Cc1ccc(Cl)cc1)c1ccc(O[C@@H]2CC[C@@H](N(C)C(C)=O)C2)cc1 (racemic) | 22000 |  | 
5 | C=CC(=O)N(c1ccc(O[C@@H]2CC[C@@H](N)C2)cc1)[C@@H](C)c1ccc(C(F)(F)F)c(C#N)c1 | 22 | 0.37 | > 100
6 | C=CC(=O)N(Cc1ccc(C#N)c(Cl)c1)c1ccc(O[C@@H]2CC[C@@H](N)C2)cc1 (racemic) | 550 |  | 
7 | C=CC(=O)N(Cc1ccc(Cl)cc1)c1ccc(O[C@@H]2CC[C@@H](N)C2)cc1 | 340 |  | 
8 | C=CC(=O)N(Cc1ccc(Cl)cc1)c1ccc(O[C@@H]2CC[C@@H](N(C)C)C2)cc1 (racemic) | 440 |  | 
9 | C=CC(=O)N(Cc1ccc(Cl)cc1)c1ccc(O[C@@H]2CC[C@@H](NC)C2)cc1 (racemic) | 380 |  | 
10 | C=CC(=O)N(Cc1ccc(Cl)c(C#N)c1)c1ccc(O[C@@H]2CC[C@@H](N)C2)cc1 (racemic) | 350 | 3.7 | 
11 | C=CC(=O)N(c1ccc(O[C@@H]2CC[C@@H](N)C2)cc1)[C@H](C)c1ccc(C(F)(F)F)c(C#N)c1 | 1600 | 6.9 | 
12 | C=CC(=O)N(Cc1ccc(Cl)cc1)c1ccc(O[C@@H]2CC[C@@H](NC(C)=O)C2)cc1 (racemic) | 460 |  | 
13 | C=CC(=O)N(Cc1ccc(Cl)cc1)c1ccc(O[C@@H]2CC[C@@H](N)C2)cc1 (racemic) | 450 | 7.4 | 
14 | C=CC(=O)N(Cc1ccc(OC)cc1)c1ccccc1Cl | 29000 |  | 
15 | C=CC(=O)N(Cc1ccc(C(F)(F)F)c(C#N)c1)c1ccc(O[C@@H]2CC[C@@H](N)C2)cc1 (racemic) | 300 | 1.8 | 
16 | C=CC(=O)N(Cc1ccc(OC)cc1)c1ccccc1 | > 100000 |  | 
17 | C=CC(=O)N(Cc1ccc(C(F)(F)F)cc1)c1ccc(O[C@@H]2CC[C@@H](N)C2)cc1 (racemic) | 720 | 2.6 | 
18 | C=CC(=O)N(Cc1ccc(Cl)cc1)c1ccc(F)cc1 | 5100 |  | 
19 | C=CC(=O)N(Cc1ccc(Cl)cc1)c1ccc(O[C@@H]2CC[C@@H](NC(=O)NC)C2)cc1 (racemic) | 360 |  | 
20 | C=CC(=O)N(Cc1ccc(Cl)cc1)c1ccc(OC)cc1 | 9800 |  | 
